Reference: US7282339B2, “Competitive immunoassay” (Invitrogen Corporation, priority 2003, dated 2007)
“And” between values parts separate entries of the source, which are not always exact repeats. Equal entries are not always repeated.

Legend:
[1] = tested on: Compound 15+P-Tyr-100 complex; test: Selectivity of displacement of Compound 15 by peptides or proteins (Example 16); assay type: binding, mouse; settings: peptides or proteins serially diluted from 80 μM
Procedure: A 5 mM solution of Compound 15 was prepared in water. In kinase buffer (50 mM Tris, pH 7.5, 10 mM MgCl2, 1 mM EGTA, 0.01% Brij 35, 2 mM DTT, 100 μM ATP) 80 μM solutions of six different peptides or proteins were made: 1) phospho-pp60 c-src peptide (521-533) (TSTEPQY*QPGENL) (Bachem, catalog # H-3258); 2) non-phospho-pp60 c-src peptide (521-533) (TSTEPQYQPGENL) (Bachem, catalog # H-3256); 3) phospho-DSIP peptide (WAGGDAS*GE) (SynPep, catalog # 3920); 4) phospho-RRA(pT)VA peptide (RRAT*VA) (Sigma, catalog V248A); 5) beta-casein (Sigma, catalog # C6905); 6) bovine serum albumin (Sigma, catalog # A7284). These peptides or proteins were serially diluted 2-fold in 20 μl in a 0.025% Mowiol-blocked 384-well black Packard OptiPlate. 20 μl of a 2× mix of 50 nM of Compound 15+100 nM P-Tyr-100 (Cell Signaling Technology, catalog # 9411) complex in kinase buffer was added to the wells. The fluorescence intensity was measured on an EnVision microplate reader (Perkin Elmer), PMT 1 gain 155, PMT 2 gain 183, excitation light 60%, 100 flashes at 9 mM height.

[2] = tested on: P-Tyr-100 mouse monoclonal anti-phosphotyrosine antibody; test: Efficacy of secondary antibody labels as FRET acceptors (Example 27); assay type: binding
Procedure: Solutions containing (A) 100 nM phosphotyramide ligand analog, (B) 100 nM phosphotyramide ligand analog complexed with 100 nM P-Tyr-100 mouse monoclonal anti-phosphotyrosine antibody and (C) 100 nM phosphotyramide ligand analog complexed with 100 nM P-Tyr-100 anti-phosphotyrosine antibody and 600 nM Fab fragments of goat anti-mouse IgG were prepared in 50 mM Tris-HC1, pH 7.5. Corresponding sets for solutions were prepared for Fab fragments labeled with three different dyes and an unlabeled control. Fluorescence intensities at 510 nm (excitation at 450 nm) were measured on a Hitachi F-4500 spectrofluorometer and were expressed as percentages of the intensity of the free phosphotyramide ligand sample (Table 5). […] Addition of a labeled secondary antibody produced a further decrease in intensity only in the case of the Alexa Fluor 555 labeling dye, which has spectral characteristics that are consistent with efficient fluorescence resonance energy transfer from the BODIPY FL phosphotyramide ligand (Compound 16).

p-Tyr-100 antibody = test: Screening of phosphotyrosine ligand-binding antibodies with Compound 16 (Example 20); design: species or system mouse; settings: compared with p-Tyr-69, p-Tyr-20 and 4G10 antibodies; 50 nM Compound 16
Procedure: A 4 mM stock of Compound 16 was made in 16% (v/v) DMSO. Three different antibodies were diluted to 1 μM in 50 mM MOPS, pH 7.2:1) p-Tyr-100 antibody (Cell Signaling Technology, catalog # 9411); 2) p-Tyr-69 antibody (BD Transduction Labs, catalog # 610430); 3) p-Tyr-20 antibody (BD Transduction Labs, catalog # 610000). A fourth antibody, the 4G10 antibody (Upstate Biotechnology, catalog # 05-321), was diluted to 400 nM in MOPS buffer. The antibodies were serially diluted in a microplate in 25 μl 50 mM MOPS, pH 7.2, buffer. 25 μl 100 nM Compound 16 in MOPS buffer was added to all wells. The fluorescence intensity was measured on an EnVision microplate reader (Perkin Elmer), PMT 1 gain 155, PMT 2 gain 187, excitation light 53%, 100 flashes at 9 mM height.

[3] = target: P-Tyr-100 anti-phosphotyrosine monoclonal antibody; test: Determination of dissociation constants for antibody-ligand complexes (Example 23); assay type: binding, mouse; settings: 1 nM test compound, P-Tyr-100 0.02 to 40 nM; fluorescence intensity, single-site saturation fit; read-out: dissociation constant
Procedure: Solutions of Compound 15 and Compound 34 (2 nM) were prepared in 50 mM Tris-HCl pH 7.5, 10 mM MgCl2, 0.01% Brij-35, 500 μM ATP, 2 mM DTT, 1 mM EGTA, 0.5 mg/ml bovine serum albumin. 25 μl aliquots of these solutions were pipetted into the wells of a 384-well microplate. 25 μl aliquots of a serially-diluted 0.08 μM stock solution of P-Tyr-100 anti-phosphotyrosine monoclonal antibody (Cell Signaling Technology, Beverly, Mass.) were added to the wells. The resulting samples contained 1 nM test compound and antibody concentrations ranging from 0.02 to 40 nM. Fluorescence intensities of triplicate samples at each antibody concentration were measured on an EnVision microplate reader (PerkinElmer Life Sciences) using excitation/emission filter settings of 480/535 nm. The mean (n=3) fluorescence intensities were plotted against the corresponding antibody concentrations. Dissociation constants were determined from hyperbolic single-site saturation binding functions fitted to the experimental data by nonlinear regression analysis (SigmaPlot, Jandel Scientific Inc). The dissociation constants obtained were 2.0 nM for Compound 15+P-Tyr-100 and 1.7 nM for Compound 34+P-Tyr-100.

[4] = tested on: P-Tyr-100 monoclonal anti-phosphotyrosine antibody; test: Z′ factor of displacement assay with Compound 34 (Example 14); assay type: binding, mouse; settings: Compound 34+P-Tyr-100 complex, phospho-pp60 c-src peptide
Procedure: A 2 mM solution of Compound 34 was prepared in water. Two working stocks were prepared in kinase buffer (50 mM Tris, pH 7.5, 10 mM MgCl2, 1 mM EGTA, 0.01% Brij 35, 2 mM DTT, 100 μM ATP): 1) 50 nM of Compound 34+100 nM P-Tyr-100 monoclonal anti-phosphotyrosine antibody (Cell Signaling Technology, catalog # 9411); 2) 100 μM phospho-pp60 c-src peptide (521-533) (TSTEPQY*QPGENL) from Bachem, catalog # H-3258. In two 384-well microplates, […] of the 50 nM Compound 34+100 nM P-Tyr-100 complex was added to 96 wells in each plate. To the same wells, 25 μl of either kinase buffer alone (48 wells each plate) or the 100 μM phospho-pp60 c-src peptide in kinase buffer (48 wells each plate) was added. The fluorescence was measured in a Victor^2 microplate reader (Wallac), 1 read/well for 0.2 sec each at 30000V gain, excitation 485+/−17.5 nm, emission 535+/−12.5 nm.
The Z′ statistic was calculated using equation 5 from Zhang, J.-H., Chung, T., D., Y., and Oldenburg, K. R. (1999) A simple statistical parameter for use in evaluation and validation of high throughput screening assays. J. Biomol. Screen. 4, 67-73. […] In other words, there is a 4-fold increase in fluorescent signal after the ligand analog is displaced by the phosphorylated peptide. See, FIG. 6.

[5] = tested on: P-Tyr-100 antiphosphotyrosine monoclonal antibody; test: Ligand analog screening: fluorescence intensity and polarization vs P-Tyr-100 antibody concentration (Examples 22, 24); assay type: binding, mouse; settings: ratio of fluorescence intensity at lowest (Fmax) to highest (Fmin) antibody concentration; 50 nM ligand analog, P-Tyr-100 0.8 to 500 nM; ex/em 480/535 nm
Procedure: Solutions of test compounds (100 nM) were prepared were prepared in 50 mM Tris-HCl pH 7.5, 10 mM MgCl2, 0.01% Brij-35, 500 μM ATP, 2 mM DTT, 1 mM EGTA. 20 μl aliquots of these solutions were pipetted into the wells of a 384-well microplate. 20 μl aliquots of a serially-diluted […] stock solution of P-Tyr-100 antiphosphotyrosine monoclonal antibody (Cell Signaling Technology, Beverly, Mass.) were added to the wells. The resulting samples contained 50 nM of each ligand analog (Compounds 15, 7, 8, 9, 18 and 19) and antibody concentrations ranging from 0.8 to 500 nM. Fluorescence polarization and intensity of the samples was measured on an EnVision microplate reader (PerkinElmer Life Sciences) using excitation/emission filter settings of 480/535 nm. Increasing fluorescence polarization as a function of antibody concentration (A) provides confirmation of ligand analog binding to the antibody. […] Phosphotyrosine peptide, target ligand, (phospho-pp60 c-src (521-533); TSTEPQY*QPGENL, Bachem California, Inc. Torrance, Calif.) was then added to all samples at a concentration of 10 μM and the fluorescence intensity and polarization measurements were repeated (C, D). […] Displacement of the ligand analogs from antibody is confirmed by depolarization of fluorescence (D compared to A). […] See, FIG. 14.
Compound 12 and Compound 13 were assessed for efficacy using the methods described in Example 22. […] Samples containing 100 nM of Compound 13 and additional components identified in the figure legend were prepared in 50 mM Tris-HCl pH 7.5, 10 mM MgCl2, 0.01% Brij-35, 100 μM ATP, 2 mM DTT, 1 mM EGTA. 100 μL volumes of these samples were transferred to microcuvettes. The fluorescence emission spectrum was recorded for each sample using a Hitachi F-4500 spectrofluorometer (excitation wavelength=520 nm). See, FIG. 15

[6] = tested on: P-Tyr-100 monoclonal anti-phosphotyrosine antibody; test: Rapid displacement of the ligand analog by the target ligand, off rate (Example 13); assay type: binding, mouse; settings: 100 nM Compound 15+100 nM P-Tyr-100; 10 μM phospho-pp60 c-src peptide added
Procedure: A 5 mM solution of Compound 15 was prepared in water. In 150 μl kinase buffer (50 mM Tris, pH 7.5, 10 mM MgCl2, 1 mM EGTA, 0.01% Brij 35, 2 mM DTT, 100 μM ATP) a reaction was made containing 100 nM Compound 15+100 nM P-Tyr-100 monoclonal anti-phosphotyrosine antibody (Cell Signaling Technology, catalog # 9411). The fluorescence was measured over time using a Hitachi F-4500 fluorimeter (Ex 470, Em 510, slit width 5 nm for both wavelengths, PMT gain 700 V). After 15 seconds, 10 μM phospho-pp60 c-src peptide (521-533) (TSTEPQY*QPGENL) from Bachem, catalog # H-3258 was added.

[7] = tested on: P-Tyr-100 monoclonal anti-phosphotyrosine antibody; test: Competitive immunoassay with Compound 15, anti-phosphotyrosine antibody and phosphotyrosine peptide (Example 12); assay type: binding, mouse; settings: 100 nM ligand analog + 100 nM P-Tyr-100, kinase buffer
Procedure: A 5 mM solution of Compound 15 was prepared in water. In 150 μl kinase buffer (50 mM Tris, pH 7.5, 10 mM MgCl2, 1 mM EGTA, 0.01% Brij 35, 2 mM DTT, 100 μM ATP) several separate reactions were made containing: 1) 100 nM Compound 15; 2) 100 nM […]+100 nM P-Tyr-100 monoclonal anti-phosphotyrosine antibody (Cell Signaling Technology, catalog # 9411); 3) 100 nM Compound 15+100 nM P-Tyr-100+10 μM phospho-pp60 c-src peptide (521-533) (TSTEPQY*QPGENL) from Bachem, catalog # H-3258; 4) 100 nM Compound 15+100 nM P-Tyr-100+10 μM phospho-abl peptide (EAIY*AAPFAKKK), custom peptide MPIJ6 from Anaspec. The resulting fluorescence was measured using a Hitachi F-4500 cuvette fluorimeter using 100 μl cuvettes. The F-4500 was set on ‘emission scan’, with an excitation at 470 nm, slit width of 5 nm, emission scan from 485-650 nm, slit width 5 nm, and the PMT gain was at 700 V.

Compound: TSTEPQY*QPGENL [phospho-pp60 c-src peptide]
- displacement of the ligand analog (Compound 15) [1]: significantly displaces

Compound: BODIPY FL phosphotyramide [Compound 16]
- fluorescence intensity at 510 nm, Sample C ([2]; 100 nM Compound 16 + 100 nM P-Tyr-100 + 600 nM Fab labeled Alexa Fluor 555 (DOS 3.8), percentages of Sample A): 36 percentages
- fluorescence intensity at 510 nm, Sample C ([2]; 100 nM Compound 16 + 100 nM P-Tyr-100 + 600 nM Fab labeled Alexa Fluor 594 (DOS 2.5), percentages of Sample A): 48 percentages
- fluorescence intensity at 510 nm, Sample C ([2]; 100 nM Compound 16 + 100 nM P-Tyr-100 + 600 nM Fab labeled Alexa Fluor 647 (DOS 2.8), percentages of Sample A): 47 percentages
- fluorescence intensity at 510 nm, Sample C ([2]; 100 nM Compound 16 + 100 nM P-Tyr-100 + 600 nM Fab, Unlabeled, percentages of Sample A): 51 percentages
- fluorescence intensity at 510 nm, Sample B ([2]; 100 nM Compound 16 + 100 nM P-Tyr-100, percentages of Sample A, excitation 450 nm): 49 percentages and 51 percentages and 53 percentages
- fluorescence intensity at 510 nm, Sample A ([2]; 100 nM Compound 16 alone, reference set to 100, excitation 450 nm): 100 percentages
- decrease of fluorescence intensity on binding to the P-Tyr-100 antibody ([2]; 100 nM ligand analog + 100 nM P-Tyr-100): approximately 50%
- affinity of antibody for the ligand analog (p-Tyr-100 antibody): highest affinity

Compound: NC(=O)C(Cc1ccc(OP(=O)(O)O)cc1)NC(=O)c1ccc(C(=O)O)c(-c2c3cc(F)c(=O)cc-3oc3cc(O)c(F)cc23)c1 (stereo not drawn) [Compound 34]
- Kd [3]: 1.7 nM
- increase in fluorescent signal after the ligand analog is displaced by the phosphorylated peptide [4]: 4 fold

Compound: O=C(NCCc1ccc(OP(=O)(O)O)cc1)c1ccc(C(=O)O)c(-c2c3cc(F)c(=O)cc-3oc3cc(O)c(F)cc23)c1 [Compound 15, Oregon Green 488 6-phosphotyramide]
- Kd [3]: 2 nM
- Fmax/Fmin [5]: 5.4
- off rate [6]: 0.14 s⁻¹
- quenching of the reporter molecule on addition of P-Tyr-100 antibody [7]: significantly quenched
